Results: PMC7385619, “A triple action CDK4/6-PI3K-BET inhibitor with augmented cancer cell cytotoxicity” (Cell Discovery, 2020)
Like-named read-outs stand apart in the source and are kept apart here.

Columns and labels:
Assay in all cases: KINOMEscan assay (Eurofins DiscoverX)
Assay type in all cases: binding
kinome (kinase panel) [1] = molecular target: T1, kinome (kinase panel) (Homo sapiens, UniProt O15075); details: DCAMKL1 (Entrez DCLK1); 1000 nM; read-out: Percent Control
T1 construct: purchased Eurofins DiscoverX

kinome (kinase panel) [2] = molecular target: T2, kinome (kinase panel) (Homo sapiens, UniProt P00519); details: 1000 nM, read-out: Percent Control
T2 construct: purchased Eurofins DiscoverX

kinome (kinase panel) [3] = molecular target: T3, kinome (kinase panel) (Homo sapiens, UniProt P06239); details: LCK; 1000 nM; read-out: Percent Control
T3 construct: purchased Eurofins DiscoverX

kinome (kinase panel) [4] = molecular target: T4, kinome (kinase panel) (Homo sapiens, UniProt P16591); details: FER; 1000 nM; read-out: Percent Control
T4 construct: purchased Eurofins DiscoverX

kinome (kinase panel) [5] = molecular target: T5, kinome (kinase panel) (Homo sapiens, UniProt P17948); details: FLT1; 1000 nM; read-out: Percent Control
T5 construct: purchased Eurofins DiscoverX

kinome (kinase panel) [6] = molecular target: T6, kinome (kinase panel) (Homo sapiens, UniProt P29597); details: 1000 nM, read-out: Percent Control
T6 construct: purchased Eurofins DiscoverX

kinome (kinase panel) [7] = molecular target: T7, kinome (kinase panel) (Homo sapiens, UniProt P32298); details: GRK4; 1000 nM; read-out: Percent Control
T7 construct: purchased Eurofins DiscoverX

kinome (kinase panel) [8] = molecular target: T8, kinome (kinase panel) (Homo sapiens, UniProt P36888, K663Q); details: […]; 1000 nM; read-out: Percent Control
T8 construct: purchased Eurofins DiscoverX

kinome (kinase panel) [9] = molecular target: T9, kinome (kinase panel) (Homo sapiens, UniProt P45983); details: JNK1 (Entrez MAPK8); 1000 nM; read-out: Percent Control
T9 construct: purchased Eurofins DiscoverX

kinome (kinase panel) [10] = molecular target: T10, kinome (kinase panel) (Homo sapiens, UniProt P49761); details: CLK3; 1000 nM; read-out: Percent Control
T10 construct: purchased Eurofins DiscoverX

kinome (kinase panel) [11] = molecular target: T11, kinome (kinase panel) (Homo sapiens, UniProt P49840); details: GSK3A; 1000 nM; read-out: Percent Control
T11 construct: purchased Eurofins DiscoverX

kinome (kinase panel) [12] = molecular target: T12, kinome (kinase panel) (Homo sapiens, UniProt P50613); details: CDK7; 1000 nM; read-out: Percent Control
T12 construct: purchased Eurofins DiscoverX

kinome (kinase panel) [13] = molecular target: T13, kinome (kinase panel) (Homo sapiens, UniProt P51812); details: 1000 nM, read-out: Percent Control
T13 construct: purchased Eurofins DiscoverX

kinome (kinase panel) [14] = molecular target: T14, kinome (kinase panel) (Homo sapiens, UniProt P54753); details: EPHB3; 1000 nM; read-out: Percent Control
T14 construct: purchased Eurofins DiscoverX

kinome (kinase panel) [15] = molecular target: T15, kinome (kinase panel) (Homo sapiens, UniProt Q05655); details: PRKCD; 1000 nM; read-out: Percent Control
T15 construct: purchased Eurofins DiscoverX

kinome (kinase panel) [16] = molecular target: T16, kinome (kinase panel) (Homo sapiens, UniProt Q08345); details: DDR1; 1000 nM; read-out: Percent Control
T16 construct: purchased Eurofins DiscoverX

kinome (kinase panel) [17] = molecular target: T17, kinome (kinase panel) (Homo sapiens, UniProt Q13557); details: CAMK2D; 1000 nM; read-out: Percent Control
T17 construct: purchased Eurofins DiscoverX

kinome (kinase panel) [18] = molecular target: T18, kinome (kinase panel) (Homo sapiens, UniProt Q15139); details: PRKD1; 1000 nM; read-out: Percent Control
T18 construct: purchased Eurofins DiscoverX

kinome (kinase panel) [19] = molecular target: T19, kinome (kinase panel) (Homo sapiens, UniProt Q15569); details: TESK1; 1000 nM; read-out: Percent Control
T19 construct: purchased Eurofins DiscoverX

kinome (kinase panel) [20] = molecular target: T20, kinome (kinase panel) (Homo sapiens, UniProt Q15831); details: LKB1 (Entrez STK11); 1000 nM; read-out: Percent Control
T20 construct: purchased Eurofins DiscoverX

kinome (kinase panel) [21] = molecular target: T21, kinome (kinase panel) (Homo sapiens, UniProt Q16512); details: PKN1; 1000 nM; read-out: Percent Control
T21 construct: purchased Eurofins DiscoverX

kinome (kinase panel) [22] = molecular target: T22, kinome (kinase panel) (Homo sapiens, UniProt Q56UN5); details: YSK4 (MAP3K19); 1000 nM; read-out: Percent Control
T22 construct: purchased Eurofins DiscoverX

kinome (kinase panel) [23] = molecular target: T23, kinome (kinase panel) (Homo sapiens, UniProt Q5VT25); details: MRCKA (Entrez CDC42BPA); 1000 nM; read-out: Percent Control
T23 construct: purchased Eurofins DiscoverX

kinome (kinase panel) [24] = molecular target: T24, kinome (kinase panel) (Homo sapiens, UniProt Q6P3R8); details: NEK5; 1000 nM; read-out: Percent Control
T24 construct: purchased Eurofins DiscoverX

kinome (kinase panel) [25] = molecular target: T25, kinome (kinase panel) (Homo sapiens, UniProt Q7L7X3); details: TAOK1; 1000 nM; read-out: Percent Control
T25 construct: purchased Eurofins DiscoverX

kinome (kinase panel) [26] = molecular target: T26, kinome (kinase panel) (Homo sapiens, UniProt Q86YV6); details: MYLK4; 1000 nM; read-out: Percent Control
T26 construct: purchased Eurofins DiscoverX

kinome (kinase panel) [27] = molecular target: T27, kinome (kinase panel) (Homo sapiens, UniProt Q8NEV4); details: MYO3A; 1000 nM; read-out: Percent Control
T27 construct: purchased Eurofins DiscoverX

kinome (kinase panel) [28] = molecular target: T28, kinome (kinase panel) (Homo sapiens, UniProt Q96NX5); details: CAMK1G; 1000 nM; read-out: Percent Control
T28 construct: purchased Eurofins DiscoverX

kinome (kinase panel) [29] = molecular target: T29, kinome (kinase panel) (Homo sapiens, UniProt Q96RR4); details: CAMKK2; 1000 nM; read-out: Percent Control
T29 construct: purchased Eurofins DiscoverX

kinome (kinase panel) [30] = molecular target: T30, kinome (kinase panel) (Homo sapiens, UniProt Q9H2G2); details: SLK; 1000 nM; read-out: Percent Control
T30 construct: purchased Eurofins DiscoverX

kinome (kinase panel) [31] = molecular target: T31, kinome (kinase panel) (Homo sapiens, UniProt Q9H4A3); details: WNK1; 1000 nM; read-out: Percent Control
T31 construct: purchased Eurofins DiscoverX

kinome (kinase panel) [32] = molecular target: T32, kinome (kinase panel) (Homo sapiens, UniProt Q9Y6R4); details: MAP3K4; 1000 nM; read-out: Percent Control
T32 construct: purchased Eurofins DiscoverX

T2 sequence (P00519 whole entry): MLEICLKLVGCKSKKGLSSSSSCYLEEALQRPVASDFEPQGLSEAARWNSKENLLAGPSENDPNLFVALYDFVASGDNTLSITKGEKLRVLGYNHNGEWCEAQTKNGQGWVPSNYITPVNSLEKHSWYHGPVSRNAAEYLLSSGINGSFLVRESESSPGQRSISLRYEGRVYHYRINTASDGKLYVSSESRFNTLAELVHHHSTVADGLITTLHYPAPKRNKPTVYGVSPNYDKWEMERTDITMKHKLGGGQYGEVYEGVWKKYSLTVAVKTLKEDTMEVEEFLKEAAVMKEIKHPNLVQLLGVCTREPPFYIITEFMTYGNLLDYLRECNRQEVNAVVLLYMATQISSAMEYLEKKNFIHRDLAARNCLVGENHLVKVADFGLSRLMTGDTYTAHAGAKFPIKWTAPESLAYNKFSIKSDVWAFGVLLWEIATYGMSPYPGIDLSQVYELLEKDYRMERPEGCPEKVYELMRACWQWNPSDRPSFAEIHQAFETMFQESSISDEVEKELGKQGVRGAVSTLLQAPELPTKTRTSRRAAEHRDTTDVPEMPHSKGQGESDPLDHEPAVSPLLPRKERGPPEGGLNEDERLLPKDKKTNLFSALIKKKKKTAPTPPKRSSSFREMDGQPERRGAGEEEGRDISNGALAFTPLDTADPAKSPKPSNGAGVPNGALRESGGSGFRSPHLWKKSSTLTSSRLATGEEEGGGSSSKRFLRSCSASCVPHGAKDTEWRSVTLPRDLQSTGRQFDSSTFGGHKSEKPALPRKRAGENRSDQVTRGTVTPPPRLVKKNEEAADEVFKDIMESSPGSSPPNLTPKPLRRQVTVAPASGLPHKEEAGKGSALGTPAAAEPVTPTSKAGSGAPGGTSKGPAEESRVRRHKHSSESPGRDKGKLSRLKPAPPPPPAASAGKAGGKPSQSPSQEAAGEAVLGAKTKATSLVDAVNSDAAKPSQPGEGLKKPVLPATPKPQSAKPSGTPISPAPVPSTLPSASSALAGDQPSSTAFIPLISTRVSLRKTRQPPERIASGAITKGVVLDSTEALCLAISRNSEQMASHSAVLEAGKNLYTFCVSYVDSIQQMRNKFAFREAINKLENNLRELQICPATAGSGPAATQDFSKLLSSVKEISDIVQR
T6 sequence (P29597 whole entry): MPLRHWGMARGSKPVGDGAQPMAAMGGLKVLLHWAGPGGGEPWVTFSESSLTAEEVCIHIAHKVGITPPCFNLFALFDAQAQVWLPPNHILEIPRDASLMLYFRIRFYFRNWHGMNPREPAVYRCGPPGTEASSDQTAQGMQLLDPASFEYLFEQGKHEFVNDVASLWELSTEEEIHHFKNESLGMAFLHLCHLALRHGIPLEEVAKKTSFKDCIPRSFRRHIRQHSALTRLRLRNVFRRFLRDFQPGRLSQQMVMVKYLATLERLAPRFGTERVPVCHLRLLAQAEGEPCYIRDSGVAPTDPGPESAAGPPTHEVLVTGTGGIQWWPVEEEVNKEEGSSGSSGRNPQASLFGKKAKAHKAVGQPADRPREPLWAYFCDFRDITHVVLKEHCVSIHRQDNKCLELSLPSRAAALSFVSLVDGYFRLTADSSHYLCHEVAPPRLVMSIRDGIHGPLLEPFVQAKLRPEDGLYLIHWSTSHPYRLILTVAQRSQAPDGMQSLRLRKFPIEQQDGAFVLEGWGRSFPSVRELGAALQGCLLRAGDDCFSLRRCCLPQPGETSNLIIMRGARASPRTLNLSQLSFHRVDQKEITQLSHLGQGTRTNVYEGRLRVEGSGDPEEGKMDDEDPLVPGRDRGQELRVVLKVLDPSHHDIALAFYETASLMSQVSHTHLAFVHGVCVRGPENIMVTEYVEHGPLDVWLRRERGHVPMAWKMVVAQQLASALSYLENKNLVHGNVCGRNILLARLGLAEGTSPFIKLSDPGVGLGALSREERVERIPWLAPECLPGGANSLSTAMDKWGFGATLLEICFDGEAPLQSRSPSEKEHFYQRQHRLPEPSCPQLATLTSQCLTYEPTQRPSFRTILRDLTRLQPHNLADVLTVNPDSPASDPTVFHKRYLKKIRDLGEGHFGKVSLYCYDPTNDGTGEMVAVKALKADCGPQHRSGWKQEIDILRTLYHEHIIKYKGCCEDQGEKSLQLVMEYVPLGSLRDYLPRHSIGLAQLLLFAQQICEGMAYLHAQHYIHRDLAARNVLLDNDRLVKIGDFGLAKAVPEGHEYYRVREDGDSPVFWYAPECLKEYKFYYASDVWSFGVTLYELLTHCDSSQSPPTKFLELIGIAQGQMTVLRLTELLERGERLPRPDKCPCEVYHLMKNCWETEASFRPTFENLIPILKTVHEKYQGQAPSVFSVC
T13 sequence (P51812 whole entry): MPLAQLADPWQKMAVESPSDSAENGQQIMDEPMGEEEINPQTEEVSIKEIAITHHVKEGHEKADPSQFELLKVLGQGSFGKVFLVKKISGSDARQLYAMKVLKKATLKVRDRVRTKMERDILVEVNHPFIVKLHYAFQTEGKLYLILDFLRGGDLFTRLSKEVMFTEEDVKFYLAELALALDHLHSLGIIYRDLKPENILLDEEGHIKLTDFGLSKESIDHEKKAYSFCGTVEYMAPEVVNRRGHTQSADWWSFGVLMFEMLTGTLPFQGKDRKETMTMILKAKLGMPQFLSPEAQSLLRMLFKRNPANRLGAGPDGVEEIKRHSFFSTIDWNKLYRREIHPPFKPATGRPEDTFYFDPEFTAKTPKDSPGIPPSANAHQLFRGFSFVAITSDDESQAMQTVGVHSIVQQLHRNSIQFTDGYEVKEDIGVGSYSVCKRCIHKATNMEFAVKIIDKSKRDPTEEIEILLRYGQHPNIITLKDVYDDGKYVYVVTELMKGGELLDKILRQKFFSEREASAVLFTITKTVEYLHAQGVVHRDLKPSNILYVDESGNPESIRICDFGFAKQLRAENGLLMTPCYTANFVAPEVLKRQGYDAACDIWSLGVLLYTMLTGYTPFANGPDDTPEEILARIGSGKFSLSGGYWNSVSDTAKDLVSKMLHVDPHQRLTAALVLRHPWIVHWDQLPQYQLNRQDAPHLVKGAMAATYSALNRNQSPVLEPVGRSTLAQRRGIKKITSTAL
T24 sequence (Q6P3R8 whole entry): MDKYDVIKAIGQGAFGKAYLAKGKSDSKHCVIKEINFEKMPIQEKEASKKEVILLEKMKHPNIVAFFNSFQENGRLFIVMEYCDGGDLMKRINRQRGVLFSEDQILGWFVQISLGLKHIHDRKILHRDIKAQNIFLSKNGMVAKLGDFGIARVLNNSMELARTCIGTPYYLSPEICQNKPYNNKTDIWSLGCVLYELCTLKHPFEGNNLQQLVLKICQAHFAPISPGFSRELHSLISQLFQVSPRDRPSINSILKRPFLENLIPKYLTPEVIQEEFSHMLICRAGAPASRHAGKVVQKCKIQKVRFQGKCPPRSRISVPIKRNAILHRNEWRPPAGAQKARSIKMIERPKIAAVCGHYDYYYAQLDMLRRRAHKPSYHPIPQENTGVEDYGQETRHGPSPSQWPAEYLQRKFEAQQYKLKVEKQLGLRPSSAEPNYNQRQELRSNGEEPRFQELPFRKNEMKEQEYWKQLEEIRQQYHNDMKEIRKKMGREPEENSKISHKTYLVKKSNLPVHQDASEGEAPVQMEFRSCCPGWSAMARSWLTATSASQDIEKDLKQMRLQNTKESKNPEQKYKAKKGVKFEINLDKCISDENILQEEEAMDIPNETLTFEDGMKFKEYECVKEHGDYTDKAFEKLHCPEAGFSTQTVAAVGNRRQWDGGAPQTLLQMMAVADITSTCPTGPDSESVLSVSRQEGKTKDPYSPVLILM
T28 sequence (Q96NX5 whole entry): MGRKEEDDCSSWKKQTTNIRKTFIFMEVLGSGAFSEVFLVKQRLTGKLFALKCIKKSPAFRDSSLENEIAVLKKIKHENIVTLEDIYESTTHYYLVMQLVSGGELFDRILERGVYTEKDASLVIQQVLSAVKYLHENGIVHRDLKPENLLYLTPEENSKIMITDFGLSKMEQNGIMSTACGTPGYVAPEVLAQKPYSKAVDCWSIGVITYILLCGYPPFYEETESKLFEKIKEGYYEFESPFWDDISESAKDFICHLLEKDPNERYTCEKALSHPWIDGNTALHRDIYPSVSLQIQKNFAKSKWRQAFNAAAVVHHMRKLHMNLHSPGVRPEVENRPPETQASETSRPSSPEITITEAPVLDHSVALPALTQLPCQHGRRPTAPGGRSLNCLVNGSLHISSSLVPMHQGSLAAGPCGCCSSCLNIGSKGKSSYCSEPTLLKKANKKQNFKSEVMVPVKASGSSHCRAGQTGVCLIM
T7 sequence (P32298 whole entry): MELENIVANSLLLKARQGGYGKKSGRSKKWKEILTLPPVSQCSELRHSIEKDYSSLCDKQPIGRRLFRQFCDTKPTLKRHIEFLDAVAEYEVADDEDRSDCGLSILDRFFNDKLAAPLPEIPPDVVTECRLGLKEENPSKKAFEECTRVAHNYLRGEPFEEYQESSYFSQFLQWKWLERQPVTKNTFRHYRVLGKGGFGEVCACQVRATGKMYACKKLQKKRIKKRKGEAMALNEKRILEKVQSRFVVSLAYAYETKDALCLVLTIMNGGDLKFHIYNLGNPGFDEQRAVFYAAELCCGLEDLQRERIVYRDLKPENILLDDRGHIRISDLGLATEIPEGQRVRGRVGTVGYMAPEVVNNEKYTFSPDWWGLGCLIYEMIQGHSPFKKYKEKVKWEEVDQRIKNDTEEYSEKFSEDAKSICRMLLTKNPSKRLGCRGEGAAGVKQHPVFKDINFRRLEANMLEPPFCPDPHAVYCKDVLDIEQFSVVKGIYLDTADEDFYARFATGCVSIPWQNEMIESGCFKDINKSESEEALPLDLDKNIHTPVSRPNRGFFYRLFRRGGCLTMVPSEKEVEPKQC

Compound: CN(C)C(=O)c1cc2cnc(Nc3ccc(-c4csc5c(=O)cc(N6CCOCC6)oc45)cc3)nc2n1C1CCCC1 [SRX3177]
- remaining binding at 1 µM (kinome (kinase panel) [1]): 51%
- remaining binding at 1 µM (kinome (kinase panel) [2]; ABL1-nonphosphorylated): 78%
- remaining binding at 1 µM (kinome (kinase panel) [2]; ABL1-phosphorylated): 63%
- remaining binding at 1 µM (kinome (kinase panel) [3]): 79%
- remaining binding at 1 µM (kinome (kinase panel) [4]): 92%
- remaining binding at 1 µM (kinome (kinase panel) [5]): 91%
- remaining binding at 1 µM (kinome (kinase panel) [6]; TYK2(JH1domain-catalytic)): 69%
- remaining binding at 1 µM (kinome (kinase panel) [6]; TYK2(JH2domain-pseudokinase)): 9.7%
- remaining binding at 1 µM (kinome (kinase panel) [7]): 39%
- remaining binding at 1 µM (kinome (kinase panel) [8]): 93%
- remaining binding at 1 µM (kinome (kinase panel) [9]): 62%
- remaining binding at 1 µM (kinome (kinase panel) [10]): 79%
- remaining binding at 1 µM (kinome (kinase panel) [11]): 60%
- remaining binding at 1 µM (kinome (kinase panel) [12]): 90%
- remaining binding at 1 µM (kinome (kinase panel) [13]; RSK2(Kin.Dom.1-N-terminal) (RPS6KA3)): 80%
- remaining binding at 1 µM (kinome (kinase panel) [13]; RSK2(Kin.Dom.2-C-terminal) (RPS6KA3)): 100%
- remaining binding at 1 µM (kinome (kinase panel) [14]): 97%
- remaining binding at 1 µM (kinome (kinase panel) [15]): 86%
- remaining binding at 1 µM (kinome (kinase panel) [16]): 72%
- remaining binding at 1 µM (kinome (kinase panel) [17]): 65%
- remaining binding at 1 µM (kinome (kinase panel) [18]): 100%
- remaining binding at 1 µM (kinome (kinase panel) [19]): 87%
- remaining binding at 1 µM (kinome (kinase panel) [20]): 85%
- remaining binding at 1 µM (kinome (kinase panel) [21]): 55%
- remaining binding at 1 µM (kinome (kinase panel) [22]): 65%
- remaining binding at 1 µM (kinome (kinase panel) [23]): 98%
- remaining binding at 1 µM (kinome (kinase panel) [24]): 93%
- remaining binding at 1 µM (kinome (kinase panel) [25]): 14%
- remaining binding at 1 µM (kinome (kinase panel) [26]): 100%
- remaining binding at 1 µM (kinome (kinase panel) [27]): 97%
- remaining binding at 1 µM (kinome (kinase panel) [28]): 75%
- remaining binding at 1 µM (kinome (kinase panel) [29]): 36%
- remaining binding at 1 µM (kinome (kinase panel) [30]): 38%
- remaining binding at 1 µM (kinome (kinase panel) [31]): 93%
- remaining binding at 1 µM (kinome (kinase panel) [32]): 90%
